From US20130030017A1, “QUINOLINE DERIVATIVES AS ANTIBACTERIAL AGENTS” (priority 2005, published 2013)
Values after ≈ are worked out from the molar mass of the structure shown.

How the values were obtained:
Assay type in all cases: cell-based
[1] = system: Streptococcus pyogens (ATCC8668); assay: Microtitre plate assay, IC90 determination (SPY 8668); conditions: 90% inhibitory concentration for bacterial growth, 37° C., resazurin fluorescence; for IC90 SPY 8668: 24 hours; for IC90: Streptococcus, ATCC8668, 24 h
Description: (§1) The bacteria used in this study were grown overnight in flasks containing 100 ml Mueller-Hinton Broth (Becton Dickinson—cat. no. 275730) in sterile de-ionized water, with shaking, at 37° C. Stocks (0.5 ml/tube) were stored at −70° C. until use. Bacteria titrations were performed in microtiter plates and colony forming units (CFUs) were determined. In general, an inoculum level of approximately 100 CFUs was used for susceptibility testing.
(§2) Flat-bottom, sterile 96-well plastic microtiter plates were filled with 180 μl of sterile deionized water, supplemented with 0.25% BSA. Subsequently, stock solutions (7.8× final test concentration) of compounds were added in 45 μl volumes in column 2 Serial five-fold dilutions (45 μl in 180 μl) were made directly in the microtiter plates from column 2 to reach column 11. Untreated control samples with (column 1) and without (column 12) inoculum were included in each microtiter plate. Depending on the bacteria type, approximately 10 to 60 CFU per well of bacteria inoculum (100 TCID50), in a volume of 100 μl in 2.8× Mueller-Hinton broth medium, was added to the rows A to H, except column 12. The same volume of broth medium without inoculum was added to column 12 in row A to H. The cultures were incubated at 37° C. for 24 hours under a normal atmosphere (incubator with open air valve and continuous ventilation). At the end of incubation, one day after inoculation, the bacterial growth was quantitated fluorometrically. Therefore resazurin (0.6 mg/ml) was added in a volume of 20 μl to all wells 3 hours after inoculation, and the plates were re-incubated overnight. A change in colour from blue to pink indicated the growth of bacteria. The fluorescence was read in a computer-controlled fluorometer (Cytofluor Biosearch) at an excitation wavelength of 530 nm and an emission wavelength of 590 nm. The % growth inhibition achieved by the compounds was calculated according to standard methods. The IC90 (expressed in μg/ml) was defined as the 90% inhibitory concentration for bacterial growth.

[2] = system: Enterococcus faecalis (ATCC29212); assay: Microtitre plate assay, IC90 determination (EFA 29212); conditions: 90% inhibitory concentration for bacterial growth, 37° C., resazurin fluorescence; for IC90 EFA 29212: 24 hours; for IC90: Enterococcus faecalis, ATCC29212, 24 h
Description: as §1, §2

[3] = system: Streptococcus pneumoniae (ATCC6305); assay: Microtitre plate assay, IC90 determination (SPN 6305); conditions: 90% inhibitory concentration for bacterial growth, 37° C., resazurin fluorescence; for IC90 SPN 6305: 24 hours; for IC90: Streptococcus pneumoniae, ATCC6305, 24 h
Description: as §1, §2

[4] = system: Staphylococcus aureus (ATCC29213); assay: Microtitre plate assay, IC90 determination (STA 29213); conditions: 90% inhibitory concentration for bacterial growth, 37° C., resazurin fluorescence; for IC90 STA 29213: 24 hours; for IC90: Staphylococcus aureus, ATCC29213, 24 h
Description: as §1, §2

[5] = system: Pseudomonas aeruginosa (ATCC27853); assay: Microtitre plate assay, IC90 determination (PAE 27853); conditions: 90% inhibitory concentration for bacterial growth, 37° C., resazurin fluorescence; for IC90 PAE 27853: 24 hours; for IC90: Pseudomonas aeruginosa, ATCC27853, 24 h
Description: as §1, §2

Compound | IC90 SPY 8668 [1] [µg/mL] | IC90 EFA 29212 [2] [µg/mL] | IC90 SPN 6305 [3] [µg/mL] | IC90 STA 29213 [4] [µg/mL] | IC90 PAE 27853 [5] [µg/mL] | IC90 [1] [µg/mL] | IC90 [2] [µg/mL] | IC90 [4] [µg/mL] | IC90 [5] [µg/mL] | IC90 [3] [µg/mL]
COc1nc2ccc(-c3cccs3)cc2cc1C(c1ccccc1)C(O)(CCc1ccccc1)CCN(C)C (racemic) [Compound 63] | 21.4 (≈ 39.9 µM) | 19.0 (≈ 35.4 µM) | 2.1 (≈ 3.91 µM) | 10.7 (≈ 19.9 µM) | 8.5 (≈ 15.8 µM) | – | – | – | – | –
COc1nc2ccc(C)cc2cc1C(c1ccccc1)C(O)(CCc1ccccc1)CCN(C)C (stereo not drawn) [Compound 2] | 37.2 (≈ 79.4 µM) | 37.2 (≈ 79.4 µM) | 1.9 (≈ 4.05 µM) | 7.4 (≈ 15.8 µM) | 37.2 (≈ 79.4 µM) | – | – | – | – | –
COc1ccc2nc(OC)c(C(c3ccccc3)C(O)(CCc3ccccc3)CCN(C)C)cc2c1 (stereo not drawn) [Compound 3] | – | – | 3.4 (≈ 7.02 µM) | – | – | 9.7 (≈ 20 µM) | 9.7 (≈ 20 µM) | 12.2 (≈ 25.2 µM) | 9.7 (≈ 20 µM) | –
CSc1nc2ccc(Br)cc2cc1C(c1ccccc1)C(O)(CCc1ccccc1)CCN(C)C (stereo not drawn) [Compound 11] | – | – | 3.9 (≈ 7.1 µM) | 11.0 (≈ 20 µM) | – | 8.7 (≈ 15.8 µM) | 43.7 (≈ 79.5 µM) | – | 43.7 (≈ 79.5 µM) | –
COc1nc2ccc(Br)cc2cc1C(c1ccccc1)C(O)(CCc1ccccc1)CCN(C)C (stereo not drawn) [Compound 18] | 8.5 (≈ 15.9 µM) | 10.6 (≈ 19.9 µM) | 2.1 (≈ 3.94 µM) | 8.5 (≈ 15.9 µM) | 10.6 (≈ 19.9 µM) | – | – | – | – | –
COc1nc2ccc(Br)cc2cc1C(c1ccccc1)C(O)(CCc1ccccc1)CCN(C)C (stereo not drawn) [Compound 19] | 1.7 (≈ 3.19 µM) | 1.7 (≈ 3.19 µM) | 2.1 (≈ 3.94 µM) | 8.5 (≈ 15.9 µM) | 1.7 (≈ 3.19 µM) | – | – | – | – | –
COc1nc2ccc(Br)cc2cc1C(c1ccccc1)C(O)(CCc1ccccc1)CCN(C)C (stereo not drawn) [Compound 20] | 1.7 (≈ 3.19 µM) | 1.7 (≈ 3.19 µM) | 1.1 (≈ 2.06 µM) | – | 1.7 (≈ 3.19 µM) | – | – | 8.5 (≈ 15.9 µM) | – | –
COc1ccc(CCC(O)(CCN(C)C)C(c2ccc(Cl)cc2)c2cc3cc(Br)ccc3nc2OC)cc1 (stereo not drawn) [Compound 22] | – | 9.5 (≈ 15.9 µM) | 0.4 (≈ 0.669 µM) | – | – | 1.9 (≈ 3.18 µM) | – | 1.9 (≈ 3.18 µM) | 1.9 (≈ 3.18 µM) | –
COc1nc2ccc(Br)cc2cc1C(c1ccccc1)C(O)(CCc1ccc(F)cc1)CCN(C)C (stereo not drawn) [Compound 26] | 1.7 (≈ 3.08 µM) | 1.7 (≈ 3.08 µM) | 2.0 (≈ 3.63 µM) | 4.4 (≈ 7.98 µM) | 1.7 (≈ 3.08 µM) | – | – | – | – | –
COc1nc2ccc(Br)cc2cc1C(c1ccccc1)C(O)(CCc1ccc(F)cc1)CCN(C)C (stereo not drawn) [Compound 28] | 3.9 (≈ 7.07 µM) | 3.9 (≈ 7.07 µM) | 0.9 (≈ 1.63 µM) | 1.7 (≈ 3.08 µM) | 3.9 (≈ 7.07 µM) | – | – | – | – | –
CSc1nc2ccc(Br)cc2cc1C(c1ccc(Cl)cc1)C(O)(CCc1ccccc1)CCN(C)C (stereo not drawn) [Compound 31] | – | – | 0.4 (≈ 0.685 µM) | 58.4 (≈ 100 µM) | – | 1.9 (≈ 3.25 µM) | 58.4 (≈ 100 µM) | – | 9.3 (≈ 15.9 µM) | –
CN(C)CCC(O)(CCc1ccccc1)C(c1ccc(Cl)cc1)c1cc2cc(Br)ccc2nc1N(C)C (stereo not drawn) [Compound 33] | – | – | – | – | – | 1.5 (≈ 2.58 µM) | 1.8 (≈ 3.1 µM) | 1.8 (≈ 3.1 µM) | 1.8 (≈ 3.1 µM) | 0.8 (≈ 1.38 µM)
COc1nc2ccc(Br)cc2cc1C(c1ccccc1)C(O)(CCc1ccc(F)cc1)CCN1CCCCC1 (stereo not drawn) [Compound 35] | – | – | 3.7 (≈ 6.25 µM) | – | – | 9.4 (≈ 15.9 µM) | 59.2 (≈ 100 µM) | 59.2 (≈ 100 µM) | 59.2 (≈ 100 µM) | –
COc1nc2ccc(-c3cccnc3)cc2cc1C(c1ccccc1)C(O)(CCc1ccccc1)CCN(C)C (stereo not drawn) [Compound 36] | – | – | – | – | – | 16.8 (≈ 31.6 µM) | 42.2 (≈ 79.4 µM) | 1.7 (≈ 3.2 µM) | 42.2 (≈ 79.4 µM) | 1.7 (≈ 3.2 µM)
COc1nc2ccc(Br)cc2cc1C(c1ccccc1)C(O)(CCN(C)C)Cc1cccc2ccccc12 (stereo not drawn) [Compound 42] | – | – | 2.3 (≈ 4.04 µM) | 9.0 (≈ 15.8 µM) | – | 4.5 (≈ 7.9 µM) | 22.7 (≈ 39.9 µM) | – | 10.1 (≈ 17.7 µM) | –
CCOCCOCCOc1nc2ccc(Br)cc2cc1C(c1ccccc1)C(O)(CCc1ccccc1)CCN(C)C (stereo not drawn) [Compound 44] | 8.0 (≈ 12.6 µM) | 10.1 (≈ 15.9 µM) | 4.5 (≈ 7.08 µM) | 22.6 (≈ 35.6 µM) | 4.5 (≈ 7.08 µM) | – | – | – | – | –
COc1nc2ccc(Br)cc2cc1C(c1cccc(Cl)c1)C(O)(CCc1ccccc1)CCN(C)C (stereo not drawn) [Compound 67] | 56.8 (≈ 100 µM) | 56.8 (≈ 100 µM) | 2.3 (≈ 4.05 µM) | 2.3 (≈ 4.05 µM) | 56.8 (≈ 100 µM) | – | – | – | – | –
COc1nc2ccc(Br)cc2cc1C(c1cccc(Cl)c1)C(O)(CCc1ccccc1)CCN(C)C (stereo not drawn) [Compound 68] | – | – | 0.7 (≈ 1.23 µM) | – | 11.3 (≈ 19.9 µM) | 56.8 (≈ 100 µM) | 56.8 (≈ 100 µM) | 2.3 (≈ 4.05 µM) | – | –
COc1nc2ccc(Br)cc2cc1C(c1cccc(C)c1)C(O)(CCc1ccccc1)CCN(C)C (stereo not drawn) [Compound 71] | – | – | – | – | – | 43.5 (≈ 79.4 µM) | 54.8 (≈ 100 µM) | 2.2 (≈ 4.02 µM) | 54.8 (≈ 100 µM) | 1.7 (≈ 3.1 µM)
COc1nc2ccc(Br)cc2cc1C(c1cccc(C)c1)C(O)(CCc1ccccc1)CCN(C)C (stereo not drawn) [Compound 72] | 43.5 (≈ 79.4 µM) | 43.5 (≈ 79.4 µM) | 2.2 (≈ 4.02 µM) | 1.7 (≈ 3.1 µM) | 43.5 (≈ 79.4 µM) | – | – | – | – | –
COc1ccc(C(c2cc3cc(Br)ccc3nc2OC)C(O)(CCc2ccccc2)CCN(C)C)cc1 (stereo not drawn) [Compound 73] | 4.0 (≈ 7.1 µM) | 8.9 (≈ 15.8 µM) | – | 7.1 (≈ 12.6 µM) | 8.0 (≈ 14.2 µM) | – | – | – | – | 1.8 (≈ 3.19 µM)
COc1nc2ccc(Br)cc2cc1C(c1ccc(Cl)cc1)C(O)(CCc1cccc(F)c1)CCN(C)C (stereo not drawn) [Compound 77] | – | 3.7 (≈ 6.31 µM) | – | 1.9 (≈ 3.24 µM) | – | 1.9 (≈ 3.24 µM) | – | – | 1.9 (≈ 3.24 µM) | 0.8 (≈ 1.37 µM)
COc1nc2ccc(Br)cc2cc1C(c1ccc(Cl)cc1)C(O)(CCc1cccc(F)c1)CCN(C)C (stereo not drawn) [Compound 78] | 1.9 (≈ 3.24 µM) | 9.3 (≈ 15.9 µM) | 1.5 (≈ 2.56 µM) | 7.4 (≈ 12.6 µM) | 1.9 (≈ 3.24 µM) | – | – | – | – | –
COc1nc2ccc(Br)cc2cc1C(c1ccc(Cl)cc1)C(O)(CCc1ccc(F)cc1)CCN(C)C (stereo not drawn) [Compound 79] | – | – | – | – | – | 46.5 (≈ 79.4 µM) | 58.6 (≈ 100 µM) | 9.3 (≈ 15.9 µM) | 46.5 (≈ 79.4 µM) | 2.3 (≈ 3.93 µM)
